Some test systems named below: U251 CNS; NCI-H460 lung; K-562 leukemia; IGROV1 ovarian; MOLT-4 leukemia; SF-268 CNS; KM12 colon; NCI-H226 lung; HOP-92 NSCLC; UACC-62 melanoma.
Common to all, as to assay: NCI-60 cell line screen, 48 h

This is an account of results in PubChem BioAssay (NCI).

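These data come from cells grown in 96-well plates and exposed to compound for 48 hours at five concentrations. At the GI50, growth is halved. TGI: concentration producing complete growth inhibition.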

Regarding `N=C(N)c1csc([C@@H]2O[C@H](CO)[C@@H](O)[C@H]2O)n1`, the TGI in the assay on U251 CNS, in the assay with NCI-H460 lung, with K-562 leukemia, in the assay on IGROV1 ovarian, in the assay on MOLT-4 leukemia and with SF-268 CNS was greater than 100 µM in each case. For the same molecule, the TGI in the assay with KM12 colon and in the assay on NCI-H226 lung was greater than 100 µM throughout.

In the case of `c1cn2cc(-c3ccc4ncn(C5CCCCC5)c4c3)nc(-c3ccc4c(c3)ncn4C3CCCCC3)c2n1`, the GI50 is 1.54 µM with HOP-92 NSCLC; 1.91 µM in the assay on U251 CNS; 1.98 µM in the assay on NCI-H460 lung; 2.58 µM in the assay with K-562 leukemia; 1.64 µM with MOLT-4 leukemia; 1.59 µM with SF-268 CNS. For the same molecule, the TGI in the assay on HOP-92 NSCLC was 3.22 µM; in the assay with U251 CNS it was 3.65 µM; in the assay on NCI-H460 lung, 4.02 µM; with K-562 leukemia, greater than 100 µM; in the assay on MOLT-4 leukemia it was 5.22 µM; with SF-268 CNS, 3.15 µM.

`CCC(=O)NC(Nc1ccc(O)cc1)(C(F)(F)F)C(F)(F)F`: the TGI with U251 CNS, with NCI-H460 lung, in the assay with K-562 leukemia, with MOLT-4 leukemia, in the assay with SF-268 CNS and with KM12 colon was greater than 100 µM in each case. In addition, the TGI in the assay with NCI-H226 lung and with UACC-62 melanoma was greater than 100 µM each time.

Turning to `Nc1ccc2c3c(n(CCCCl)c(=O)c2c1)-c1cc2c(cc1C3=O)OCO2`, the GI50 in the assay with HOP-92 NSCLC was greater than 100 µM; in the assay with U251 CNS, greater than 100 µM; in the assay with NCI-H460 lung it was 0.14 µM; in the assay on K-562 leukemia, greater than 100 µM; with IGROV1 ovarian, 0.177 µM; with MOLT-4 leukemia, 2.14 µM. The GI50 with SF-268 CNS was greater than 100 µM; with KM12 colon, 41.6 µM; in the assay with UACC-62 melanoma, greater than 100 µM. Also, the TGI with HOP-92 NSCLC, with U251 CNS, in the assay with NCI-H460 lung, in the assay on K-562 leukemia, in the assay on IGROV1 ovarian and in the assay with MOLT-4 leukemia was greater than 100 µM each time. Moreover, the TGI with SF-268 CNS, in the assay with KM12 colon and in the assay on UACC-62 melanoma was greater than 100 µM in each case.

For the molecule `CC(C)(C)[Si](C)(C)OCC1CCC(n2cnc3c(N)ncnc32)O1` (stereo not drawn), the TGI in the assay with HOP-92 NSCLC, in the assay on U251 CNS, in the assay with NCI-H460 lung, in the assay with K-562 leukemia, in the assay with IGROV1 ovarian and with MOLT-4 leukemia was greater than 100 µM throughout. Also, the TGI in the assay with KM12 colon, with NCI-H226 lung and with UACC-62 melanoma was greater than 100 µM throughout.

With `NC(CCP(=O)(O)CCC1C=CC=CC1)C(=O)O` (stereo not drawn), the TGI in the assay on HOP-92 NSCLC, with U251 CNS, in the assay with NCI-H460 lung, in the assay on K-562 leukemia, with IGROV1 ovarian and in the assay with MOLT-4 leukemia was greater than 100 µM throughout. The TGI in the assay on SF-268 CNS, in the assay on KM12 colon and with UACC-62 melanoma was greater than 100 µM in each case.

For `COC(=O)c1ccc(N=NN(C)COc2ccc([N+](=O)[O-])cc2)cc1`, the TGI with HOP-92 NSCLC, in the assay with U251 CNS, with NCI-H460 lung, in the assay on K-562 leukemia, with IGROV1 ovarian and with MOLT-4 leukemia was greater than 100 µM throughout. For the same molecule, the TGI with SF-268 CNS, in the assay with KM12 colon, with NCI-H226 lung and with UACC-62 melanoma was greater than 100 µM throughout.

For `COc1cc(C2=C(C#N)C(N)OC3=C2COc2ccccc23)cc(OC)c1OC` (stereo not drawn), the TGI in the assay on HOP-92 NSCLC was greater than 100 µM; in the assay on U251 CNS it was 33.2 µM; with NCI-H460 lung it was 84.8 µM; with K-562 leukemia, greater than 100 µM; in the assay on IGROV1 ovarian, greater than 100 µM; in the assay on MOLT-4 leukemia, greater than 100 µM. The TGI with SF-268 CNS was 89.1 µM; with KM12 colon, greater than 100 µM; in the assay on NCI-H226 lung, 91.1 µM; with UACC-62 melanoma, greater than 100 µM.

Take `NNc1nc2ccccc2s1`: the TGI with HOP-92 NSCLC, in the assay with U251 CNS, in the assay on NCI-H460 lung, in the assay on K-562 leukemia, in the assay on IGROV1 ovarian and in the assay with MOLT-4 leukemia was greater than 100 µM each time. Moreover, the TGI with SF-268 CNS, in the assay on KM12 colon, in the assay with NCI-H226 lung and in the assay with UACC-62 melanoma was greater than 100 µM throughout.

On to `O=C(O)C1Cc2c([nH]c3ccccc23)C=N1` (stereo not drawn), for which the TGI in the assay with HOP-92 NSCLC, in the assay with U251 CNS, with NCI-H460 lung, with K-562 leukemia, with IGROV1 ovarian and in the assay with MOLT-4 leukemia was greater than 100 µM in each case. Besides, the TGI was greater than 100 µM in the assay with SF-268 CNS, greater than 31.7 µM in the assay on KM12 colon and greater than 100 µM in the assay with UACC-62 melanoma.
